Inhibition data for three molecules are collected here from publication PMC6430017, “Structural and chemical insights into the covalent-allosteric inhibition of the protein kinase Akt” (Chemical Science, 2019).

For orientation: inhibition means the relative decrease from the control value, in per cent.

Some targets named below: RPS6KA2 (RSK3) (Homo sapiens, UniProt Q15349); AMPK A1/B1/G1 (Homo sapiens, UniProt Q13131); PRKCB1 (PKC beta I) (Homo sapiens, UniProt P05771); KIT (Homo sapiens, UniProt P10721); CDK1/cyclin B (Homo sapiens, UniProt P06493); MAPK3 (ERK1) (Homo sapiens, UniProt P27361); GRK5 (Homo sapiens, UniProt P34947).
Experiment in all cases: SelectScreen Z'LYTE kinase profiling
Common to all, as to format: biochemical
Common to all, as to details: ATP at apparent KM

The next assay addresses T1, JAK3 (Homo sapiens, UniProt P52333).
T1 sequence (P52333 1-1124): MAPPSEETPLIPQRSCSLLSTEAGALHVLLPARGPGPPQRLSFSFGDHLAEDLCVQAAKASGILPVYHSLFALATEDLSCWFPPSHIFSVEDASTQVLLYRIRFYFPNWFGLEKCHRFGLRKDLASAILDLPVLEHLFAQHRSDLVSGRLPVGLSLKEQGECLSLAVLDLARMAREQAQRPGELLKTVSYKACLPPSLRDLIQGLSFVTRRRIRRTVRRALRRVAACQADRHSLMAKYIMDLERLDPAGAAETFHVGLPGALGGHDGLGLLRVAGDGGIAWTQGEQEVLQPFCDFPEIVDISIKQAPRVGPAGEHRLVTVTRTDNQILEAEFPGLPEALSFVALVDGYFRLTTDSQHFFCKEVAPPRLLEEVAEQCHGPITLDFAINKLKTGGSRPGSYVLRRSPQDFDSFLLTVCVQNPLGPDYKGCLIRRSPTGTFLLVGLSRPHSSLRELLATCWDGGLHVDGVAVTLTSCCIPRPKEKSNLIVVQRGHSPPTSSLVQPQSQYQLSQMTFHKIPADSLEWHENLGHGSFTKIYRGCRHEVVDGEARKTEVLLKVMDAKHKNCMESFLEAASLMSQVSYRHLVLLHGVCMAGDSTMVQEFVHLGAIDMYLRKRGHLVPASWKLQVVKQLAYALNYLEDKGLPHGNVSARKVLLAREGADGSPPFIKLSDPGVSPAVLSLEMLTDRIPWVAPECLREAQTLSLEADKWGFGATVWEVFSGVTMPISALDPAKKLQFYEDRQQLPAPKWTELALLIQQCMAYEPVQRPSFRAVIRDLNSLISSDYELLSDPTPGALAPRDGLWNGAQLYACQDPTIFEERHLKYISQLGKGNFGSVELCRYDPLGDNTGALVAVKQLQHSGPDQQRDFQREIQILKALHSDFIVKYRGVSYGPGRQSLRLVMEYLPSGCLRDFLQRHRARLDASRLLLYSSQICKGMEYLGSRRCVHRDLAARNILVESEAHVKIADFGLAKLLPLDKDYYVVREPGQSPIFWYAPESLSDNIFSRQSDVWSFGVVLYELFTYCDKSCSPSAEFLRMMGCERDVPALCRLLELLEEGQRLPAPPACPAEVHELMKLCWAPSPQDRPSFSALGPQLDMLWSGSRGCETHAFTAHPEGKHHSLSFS

A further assay has as its target T2, STK4 (MST1) (Homo sapiens, UniProt Q13043).
T2 sequence (Q13043 1-487): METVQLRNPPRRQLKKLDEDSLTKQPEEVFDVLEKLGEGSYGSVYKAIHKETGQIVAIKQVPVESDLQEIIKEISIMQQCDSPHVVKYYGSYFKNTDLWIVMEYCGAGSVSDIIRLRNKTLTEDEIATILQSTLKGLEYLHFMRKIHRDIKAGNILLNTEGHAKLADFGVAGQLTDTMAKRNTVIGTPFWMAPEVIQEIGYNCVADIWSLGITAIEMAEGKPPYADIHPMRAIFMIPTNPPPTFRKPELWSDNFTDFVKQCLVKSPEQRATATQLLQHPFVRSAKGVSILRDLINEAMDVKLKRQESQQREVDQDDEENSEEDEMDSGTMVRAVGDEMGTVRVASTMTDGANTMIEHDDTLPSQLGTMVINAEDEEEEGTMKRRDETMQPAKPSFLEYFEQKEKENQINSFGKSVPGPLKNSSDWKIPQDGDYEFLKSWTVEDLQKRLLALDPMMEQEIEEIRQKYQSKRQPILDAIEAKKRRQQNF

For the next assay, the target named is T3, PRKX (Homo sapiens, UniProt P51817).
T3 sequence (P51817 1-358): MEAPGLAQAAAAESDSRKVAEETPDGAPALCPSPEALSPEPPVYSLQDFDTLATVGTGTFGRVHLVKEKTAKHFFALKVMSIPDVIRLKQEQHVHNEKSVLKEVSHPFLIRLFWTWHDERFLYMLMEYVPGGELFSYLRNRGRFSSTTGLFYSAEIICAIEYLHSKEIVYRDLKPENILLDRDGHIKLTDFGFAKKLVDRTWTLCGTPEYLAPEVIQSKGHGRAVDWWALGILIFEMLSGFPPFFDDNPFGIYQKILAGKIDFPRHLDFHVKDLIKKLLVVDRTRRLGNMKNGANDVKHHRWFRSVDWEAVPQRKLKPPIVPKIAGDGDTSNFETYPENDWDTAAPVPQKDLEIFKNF

SMILES strings stand for the structures.

Sequence of RPS6KA2 (RSK3) (Q15349 whole entry): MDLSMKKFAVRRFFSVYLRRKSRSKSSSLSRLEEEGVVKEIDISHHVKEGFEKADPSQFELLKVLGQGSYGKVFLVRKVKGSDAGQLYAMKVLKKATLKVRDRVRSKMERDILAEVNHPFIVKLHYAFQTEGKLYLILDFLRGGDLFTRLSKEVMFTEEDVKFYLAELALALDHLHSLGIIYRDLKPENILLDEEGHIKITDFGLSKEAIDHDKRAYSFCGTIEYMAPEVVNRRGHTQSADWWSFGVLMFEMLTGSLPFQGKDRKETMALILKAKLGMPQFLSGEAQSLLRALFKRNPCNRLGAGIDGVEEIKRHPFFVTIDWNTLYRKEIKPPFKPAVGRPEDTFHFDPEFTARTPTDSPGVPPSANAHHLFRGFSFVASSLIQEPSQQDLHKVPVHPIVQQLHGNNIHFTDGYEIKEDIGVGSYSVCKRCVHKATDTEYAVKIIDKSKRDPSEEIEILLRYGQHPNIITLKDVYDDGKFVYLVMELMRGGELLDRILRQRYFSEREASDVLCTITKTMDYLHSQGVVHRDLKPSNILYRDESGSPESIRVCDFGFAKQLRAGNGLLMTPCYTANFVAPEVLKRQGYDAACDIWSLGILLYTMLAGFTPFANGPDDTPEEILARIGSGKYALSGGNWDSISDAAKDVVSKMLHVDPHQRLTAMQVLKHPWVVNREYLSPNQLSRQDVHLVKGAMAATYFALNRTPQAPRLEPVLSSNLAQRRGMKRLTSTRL
Sequence of GRK5 (P34947 whole entry): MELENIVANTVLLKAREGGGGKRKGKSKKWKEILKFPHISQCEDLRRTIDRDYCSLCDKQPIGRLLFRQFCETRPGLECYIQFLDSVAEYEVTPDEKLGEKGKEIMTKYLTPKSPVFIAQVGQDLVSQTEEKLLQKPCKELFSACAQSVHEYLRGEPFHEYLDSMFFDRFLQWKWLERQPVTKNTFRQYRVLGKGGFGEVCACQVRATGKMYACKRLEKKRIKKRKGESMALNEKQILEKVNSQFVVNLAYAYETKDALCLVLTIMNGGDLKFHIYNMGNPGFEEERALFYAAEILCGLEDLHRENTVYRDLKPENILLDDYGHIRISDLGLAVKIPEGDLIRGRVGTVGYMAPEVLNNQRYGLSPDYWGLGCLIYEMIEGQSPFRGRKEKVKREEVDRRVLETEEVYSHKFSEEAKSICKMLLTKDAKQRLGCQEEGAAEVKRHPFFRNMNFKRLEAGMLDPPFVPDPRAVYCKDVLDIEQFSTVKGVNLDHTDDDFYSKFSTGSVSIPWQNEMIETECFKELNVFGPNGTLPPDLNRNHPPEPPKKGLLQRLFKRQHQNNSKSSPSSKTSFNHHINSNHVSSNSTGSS
Sequence of MAPK3 (ERK1) (P27361 whole entry): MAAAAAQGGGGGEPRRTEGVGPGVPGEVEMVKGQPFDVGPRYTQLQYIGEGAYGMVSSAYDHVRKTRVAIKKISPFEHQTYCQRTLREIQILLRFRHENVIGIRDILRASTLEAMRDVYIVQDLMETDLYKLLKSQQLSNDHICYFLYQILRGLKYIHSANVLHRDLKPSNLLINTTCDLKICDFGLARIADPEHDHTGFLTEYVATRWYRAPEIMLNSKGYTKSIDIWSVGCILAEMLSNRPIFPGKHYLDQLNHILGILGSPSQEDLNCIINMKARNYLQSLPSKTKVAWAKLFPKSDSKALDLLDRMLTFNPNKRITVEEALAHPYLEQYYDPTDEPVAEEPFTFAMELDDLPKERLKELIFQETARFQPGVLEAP
Sequence of PRKCB1 (PKC beta I) (P05771 whole entry): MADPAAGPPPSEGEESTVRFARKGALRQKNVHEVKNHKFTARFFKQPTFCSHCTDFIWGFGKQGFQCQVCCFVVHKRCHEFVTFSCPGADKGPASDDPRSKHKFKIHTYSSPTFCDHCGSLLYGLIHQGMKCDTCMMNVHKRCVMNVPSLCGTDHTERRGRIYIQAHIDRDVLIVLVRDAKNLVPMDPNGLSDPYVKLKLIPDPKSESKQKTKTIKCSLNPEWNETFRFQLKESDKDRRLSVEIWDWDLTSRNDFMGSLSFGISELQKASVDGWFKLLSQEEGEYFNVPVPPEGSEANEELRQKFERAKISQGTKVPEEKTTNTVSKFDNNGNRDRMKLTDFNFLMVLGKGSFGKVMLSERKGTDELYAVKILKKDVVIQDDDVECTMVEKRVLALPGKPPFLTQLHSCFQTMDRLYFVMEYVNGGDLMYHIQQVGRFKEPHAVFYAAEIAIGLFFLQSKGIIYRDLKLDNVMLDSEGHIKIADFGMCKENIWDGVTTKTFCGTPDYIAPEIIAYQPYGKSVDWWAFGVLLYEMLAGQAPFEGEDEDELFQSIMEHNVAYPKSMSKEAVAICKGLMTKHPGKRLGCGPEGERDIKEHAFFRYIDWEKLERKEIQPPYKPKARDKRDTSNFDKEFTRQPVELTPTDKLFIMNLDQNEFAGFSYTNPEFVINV
Sequence of KIT (P10721 26-976): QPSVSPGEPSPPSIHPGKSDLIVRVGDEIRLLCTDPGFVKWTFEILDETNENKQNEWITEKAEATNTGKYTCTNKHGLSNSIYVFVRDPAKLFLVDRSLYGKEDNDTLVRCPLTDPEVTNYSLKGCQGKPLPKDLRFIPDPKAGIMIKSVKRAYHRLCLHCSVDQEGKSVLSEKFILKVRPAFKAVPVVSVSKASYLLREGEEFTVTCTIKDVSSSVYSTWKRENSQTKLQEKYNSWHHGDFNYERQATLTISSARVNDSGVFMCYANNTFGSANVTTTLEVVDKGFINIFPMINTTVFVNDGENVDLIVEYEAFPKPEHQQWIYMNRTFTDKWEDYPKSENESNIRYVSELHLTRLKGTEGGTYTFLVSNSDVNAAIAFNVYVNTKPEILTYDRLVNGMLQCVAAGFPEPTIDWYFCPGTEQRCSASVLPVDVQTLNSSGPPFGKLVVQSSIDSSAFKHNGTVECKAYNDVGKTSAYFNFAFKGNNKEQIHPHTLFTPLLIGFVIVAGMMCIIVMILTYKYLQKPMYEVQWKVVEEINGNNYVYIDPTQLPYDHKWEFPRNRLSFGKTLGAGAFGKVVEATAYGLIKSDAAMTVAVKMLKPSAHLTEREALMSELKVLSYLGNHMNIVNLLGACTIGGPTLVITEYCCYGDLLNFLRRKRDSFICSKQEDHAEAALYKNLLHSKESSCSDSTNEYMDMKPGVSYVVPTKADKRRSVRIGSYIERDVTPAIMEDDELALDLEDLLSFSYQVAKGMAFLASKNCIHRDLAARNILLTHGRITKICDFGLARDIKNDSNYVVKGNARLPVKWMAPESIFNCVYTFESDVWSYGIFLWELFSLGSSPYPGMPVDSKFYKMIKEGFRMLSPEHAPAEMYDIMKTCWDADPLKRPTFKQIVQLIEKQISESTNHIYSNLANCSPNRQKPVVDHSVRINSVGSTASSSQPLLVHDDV
Sequence of AMPK A1/B1/G1 (Q13131 whole entry): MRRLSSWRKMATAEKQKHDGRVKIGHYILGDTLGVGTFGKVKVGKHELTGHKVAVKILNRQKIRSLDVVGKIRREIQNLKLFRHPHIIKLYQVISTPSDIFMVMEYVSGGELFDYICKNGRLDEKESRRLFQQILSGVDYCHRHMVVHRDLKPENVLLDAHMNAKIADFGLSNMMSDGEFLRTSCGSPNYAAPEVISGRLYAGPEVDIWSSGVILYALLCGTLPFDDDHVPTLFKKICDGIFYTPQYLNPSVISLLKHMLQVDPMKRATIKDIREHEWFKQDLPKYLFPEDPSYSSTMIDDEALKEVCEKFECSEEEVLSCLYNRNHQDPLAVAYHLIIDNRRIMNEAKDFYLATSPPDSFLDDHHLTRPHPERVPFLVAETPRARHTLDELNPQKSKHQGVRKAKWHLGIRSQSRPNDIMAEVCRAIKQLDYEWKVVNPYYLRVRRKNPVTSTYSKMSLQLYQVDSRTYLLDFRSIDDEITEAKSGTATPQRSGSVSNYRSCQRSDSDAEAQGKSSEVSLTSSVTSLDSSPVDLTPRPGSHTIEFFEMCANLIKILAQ
Sequence of AMPK A1/B1/G1 (Q9Y478 whole entry partner): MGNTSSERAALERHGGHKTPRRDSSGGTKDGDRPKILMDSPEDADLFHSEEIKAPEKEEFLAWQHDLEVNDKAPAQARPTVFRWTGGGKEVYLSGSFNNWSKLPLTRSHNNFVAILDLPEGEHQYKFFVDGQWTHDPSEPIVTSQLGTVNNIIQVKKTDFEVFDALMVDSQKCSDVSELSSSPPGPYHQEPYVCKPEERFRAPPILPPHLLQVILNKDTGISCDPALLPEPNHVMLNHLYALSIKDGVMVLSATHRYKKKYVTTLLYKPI
Sequence of AMPK A1/B1/G1 (P54619 whole entry partner): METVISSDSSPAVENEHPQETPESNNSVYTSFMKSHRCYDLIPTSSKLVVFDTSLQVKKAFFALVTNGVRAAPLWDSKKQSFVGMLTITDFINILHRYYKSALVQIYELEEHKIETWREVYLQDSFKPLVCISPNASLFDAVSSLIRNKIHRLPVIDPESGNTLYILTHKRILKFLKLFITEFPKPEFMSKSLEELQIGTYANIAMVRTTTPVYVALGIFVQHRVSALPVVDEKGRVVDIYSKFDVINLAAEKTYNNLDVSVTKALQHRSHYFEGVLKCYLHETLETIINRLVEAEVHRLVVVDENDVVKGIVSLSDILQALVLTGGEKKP
Method for AMPK A1/B1/G1: (§1) protein kinases at a compound concentration of 1 µM. Measurements were performed in duplicates
(§2) and at the particular apparent ATP KM of each individual kinase employing the activity based Z’LYTE®
(§3) kinase assay of the SelectScreen® Kinase Profiling Services (ThermoFisher Scientific).
(§4) kinases at a compound concentration of 1 µM. Measurements were performed in duplicates and at
(§5) the particular apparent ATP KM of each individual kinase employing the activity based Z’LYTE® kinase
(§6) assay of the SelectScreen® Kinase Profiling Services (ThermoFisher Scientific).
Method for CDK1/cyclin B: as §1, §2, §3, §4, §5, §6
Method for GRK5: as §1, §2, §3, §4, §5, §6
Method for JAK3: as §1, §2, §3, §4, §5, §6
Method for KIT: as §1, §2, §3, §4, §5, §6
Method for MAPK3 (ERK1): as §1, §2, §3, §4, §5, §6
Method for PRKCB1 (PKC beta I): as §1, §2, §3, §4, §5, §6
Method for PRKX: as §1, §2, §3, §4, §5, §6
Method for RPS6KA2 (RSK3): as §1, §2, §3, §4, §5, §6

Take `C=CC(=O)Nc1ccc2c(c1)n(C1CCN(Cc3ccc(-c4nc5cc[nH]c(=O)c5cc4-c4ccccc4)cc3)CC1)c(=O)n2C` [24b]: the inhibition at 1 µM came out at 25% at RPS6KA2 (RSK3); 23% at JAK3; 17% on AMPK A1/B1/G1; 7% at PRKCB1 (PKC beta I); 6% at KIT; 6% at STK4 (MST1). For the same molecule, the inhibition at 1 µM at CDK1/cyclin B is 3%; on MAPK3 (ERK1) it was 0%; at PRKX, -1%; at GRK5, -10%.

Take `C=CC(=O)Nc1cccc(C(=O)NC2CCN(Cc3ccc(-c4nc5cc[nH]c(=O)c5cc4-c4ccccc4)cc3)CC2)c1` [30b]: the inhibition at 1 µM on RPS6KA2 (RSK3) was determined as 33%; at JAK3, 26%; on AMPK A1/B1/G1, 46%; at PRKCB1 (PKC beta I), 6%; on KIT, 9%; at STK4 (MST1), 7%. For the same molecule, the inhibition at 1 µM was 3% on CDK1/cyclin B, 3% on MAPK3 (ERK1), -6% at PRKX and -1% at GRK5.

On to `C=CC(=O)Nc1cc(NC(=O)NC2CCN(Cc3ccc(-c4nc5cc[nH]c(=O)c5cc4-c4ccccc4)cc3)CC2)ccc1Cl` [compound 27], for which the inhibition at 1 µM on RPS6KA2 (RSK3) was determined as 31%; on JAK3 it was 17%; on AMPK A1/B1/G1, 76%; at PRKCB1 (PKC beta I) it was 6%; at KIT, 9%; on STK4 (MST1), 14%. Also, the inhibition at 1 µM was 3% on CDK1/cyclin B, 3% on MAPK3 (ERK1), 3% on PRKX and -2% on GRK5.
